# Test results from patent US6509375B1, “Method for increasing productivity in breeder hens” (Cyncron Corporation, priority 1999, dated 2003).
# Experiments:
# Type in all cases: in vivo
# [1] = test system: progeny chicks of broiler/breeder hens; experiment: Feeding efficiency of progeny chicks hatched from eggs of L-DOPA treated breeder hens
# Protocol: As used herein, “feeding efficiency” is defined as the ratio of the weight of feed necessary to achieve one weight unit in broiler/breeder hens.
# (§1) Beginning with week 6 of treatment, eggs from treated hens were incubated and hatched. The progeny were then followed for seven to eight weeks to assess weight gain and feeding efficiency. Egg production percentage is in terms of eggs/day/100 hens. The fertility percentage is the number of eggs laid that are fertile. The hatch/fertile ratio is the number of fertile eggs that hatch divided by the number of fertile eggs laid. The chick production percentage is the product of the egg production, fertility, and hatch/fertile percentages.
# The progeny chicks hatched from eggs laid by the control and L-DOPA treated breeder hens were evaluated for feeding efficiency, as described above.
# Progeny Group 1: 8 week feed conversions; Week […] of treatment in broiler breeders
# Progeny Group 2: 8 week feed conversions; Week 7 of treatment in broiler breeders
# Progeny Group 3: 8 week feed conversions; Week 8 of treatment in broiler breeders
# Progeny Group 4: 7 week feed conversions; Week 9 of treatment in broiler breeders
# Progeny Group 5: 6 week feed conversions; Week 10 of treatment in broiler breeders
# broiler/breeder hens = experiment: Egg laying by broiler breeder hens following handling and transfer stress (Example 2); details: for number of eggs laid: ten hens/group, 50 mg/day/kg body weight in food
# Protocol: 58 week old broiler/breeder hens were obtained from a commercial private breeder when they were laying at a rate of approximately 54% (54 eggs/day/100 hens; 38 eggs/week/10 hens). […] L-DOPA was added to the feed of the treatment group of breeder hens at a dosage of 50 mg/day/kg body weight; none was added to the feed of the control group. Egg laying was monitored daily for 9 weeks in the treated and control group.
# [2] = test system: Hubbard broiler/breeder hens; experiment: Egg and chick production by broiler/breeder hens fed L-DOPA-supplemented diet (Example 1); details: for Fertility (%): eggs laid that are fertile; for Egg production (%): eggs/day/100 hens, 50 mg/kg body weight in feed; for Hatch/Fertile (%): fertile eggs that hatch / fertile eggs laid; for Chick Production (%): product of egg production, fertility and hatch/fertile percentages
# Protocol: 20 Hubbard broiler/breeder hens and 4 roosters at 57 weeks of age were separated into two groups of 10 hens and two roosters. One group was fed a control (untreated) diet and the second group was fed the same diet supplemented with 50 mg/kg body weight of L-DOPA for 10 weeks. This was followed by a 3-4 week rest period and then treatment was initiated for another 3 weeks (retreatment).
# as §1
smiles,measurement,setting,value
"N[C@@H](Cc1ccc(O)c(O)c1)C(=O)O [L-DOPA, L-Dihydroxyphenylalanine]",Final feeding efficiency of progeny,[1]; Average of progeny groups 1-5,2.05 pounds of feed consumed per pound of body weight gained
same,Final feeding efficiency of progeny,"[1]; Progeny Group 1: 8 week feed conversions, Week 8 of treatment in broiler breeders",1.99 pounds of feed consumed per pound of body weight gained
same,Final feeding efficiency of progeny,"[1]; Progeny Group 2: 8 week feed conversions, Week 7 of treatment in broiler breeders",2.07 pounds of feed consumed per pound of body weight gained
same,Final feeding efficiency of progeny,"[1]; Progeny Group 3: 8 week feed conversions, Week 8 of treatment in broiler breeders",1.98 pounds of feed consumed per pound of body weight gained
same,Final feeding efficiency of progeny,"[1]; Progeny Group 4: 7 week feed conversions, Week 9 of treatment in broiler breeders",2.07 pounds of feed consumed per pound of body weight gained
same,Final feeding efficiency of progeny,"[1]; Progeny Group 5: 6 week feed conversions, Week 10 of treatment in broiler breeders",2.12 pounds of feed consumed per pound of body weight gained
same,average increase in feeding efficiency of progeny relative to control birds,[1]; progeny hatched from eggs during weeks 6-10 of treatment,6%
same,number of eggs laid,broiler/breeder hens; Total of weeks 1-9 after handling and transfer stress,327
same,recovery time to achieve the same egg laying productivity rate as before the stress,broiler/breeder hens; control hens: two months,one month
same,total number of eggs laid greater than that of untreated controls,broiler/breeder hens; nine weeks following the moving stress,31%
same,number of eggs laid,broiler/breeder hens; week 1 after handling and transfer stress,10
same,number of eggs laid,broiler/breeder hens; week 2 after handling and transfer stress,29
same,number of eggs laid,broiler/breeder hens; week 3 after handling and transfer stress,34
same,number of eggs laid,broiler/breeder hens; week 4 after handling and transfer stress,41
same,number of eggs laid,broiler/breeder hens; week 5 after handling and transfer stress,39
same,number of eggs laid,broiler/breeder hens; week 6 after handling and transfer stress,50
same,number of eggs laid,broiler/breeder hens; week 7 after handling and transfer stress,41
same,number of eggs laid,broiler/breeder hens; week 8 after handling and transfer stress,40
same,number of eggs laid,broiler/breeder hens; week 9 after handling and transfer stress,43
same,average percentage egg production versus control hens,"[2]; FIG. 1, over an eight week period",greater
same,cumulative egg production versus control hens,"[2]; FIG. 2, nine week period, L-DOPA-supplemented feed",significantly higher
same,percentage egg production versus control hens during re-treatment,"[2]; FIG. 3, three weeks of re-treatment following three weeks without L-DOPA",increase
same,average weekly egg production versus control hens,"[2]; FIGS. 1 and 2, L-DOPA-supplemented feed 50 mg/kg body weight",significantly higher
same,higher rates of hatching of fertile eggs over eggs from control hens,"[2]; eggs set for incubation during weeks 7, 8 and 10 of treatment",15%
same,Fertility (%),"[2]; mean of weeks 7, 8, 10",92%
same,Egg production (%),"[2]; mean of weeks 7, 8, 10",64%
same,Hatch/Fertile (%),"[2]; mean of weeks 7, 8, 10",84%
same,Chick Production (%),"[2]; mean of weeks 7, 8, 10",51%
same,Fertility (%),[2]; week 7 of treatment,84%
same,Egg production (%),[2]; week 7 of treatment,71%
same,Hatch/Fertile (%),[2]; week 7 of treatment,75%
same,Chick Production (%),[2]; week 7 of treatment,45%
same,Fertility (%),[2]; week 8 of treatment,100%
same,Egg production (%),[2]; week 8 of treatment,58%
same,Hatch/Fertile (%),[2]; week 8 of treatment,90%
same,Chick Production (%),[2]; week 8 of treatment,52%
same,Fertility (%),[2]; week 10 of treatment,92%
same,Egg production (%),[2]; week 10 of treatment,62%
same,Hatch/Fertile (%),[2]; week 10 of treatment,86%
same,Chick Production (%),[2]; week 10 of treatment,55%
same,overall gain in chick production over the control groups,"[2]; weeks 7, 8 and 10 of treatment",76%
